One data set deals with T1, A1-adenosine receptors (Rattus norvegicus, UniProt P25099).
T1 construct: adenosine receptors in rat cerebral cortex membranes was assayed as described; from tissue; b141 says rat striatum
T1 sequence (P25099 1-326): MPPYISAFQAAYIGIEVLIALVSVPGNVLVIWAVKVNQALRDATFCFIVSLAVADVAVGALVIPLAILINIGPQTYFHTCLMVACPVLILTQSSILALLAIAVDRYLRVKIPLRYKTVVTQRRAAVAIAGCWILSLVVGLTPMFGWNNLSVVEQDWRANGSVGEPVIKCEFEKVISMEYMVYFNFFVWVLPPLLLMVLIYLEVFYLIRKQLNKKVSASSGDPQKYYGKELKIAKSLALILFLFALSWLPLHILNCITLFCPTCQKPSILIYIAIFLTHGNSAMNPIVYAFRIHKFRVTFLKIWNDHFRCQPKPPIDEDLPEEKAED
The data set is described as follows: Competitive binding assay at A1 receptors ([3H]RPIA). The protocol:
Table 4 also indicates the synthesis method used for each compound therein.
(§1) A1 ligand = [^3 H]RPIA, A2 ligand = [^3 H]CGS21680
(§2) Inhibition of binding by a range of concentrations of an adenosine derivative was assessed in triplicate in at least three separate experiments. At least seven different concentrations spanning three orders of magnitude, adjusted appropriate for the IC50 of each compound were used. IC50 values Ci/mmol) or [^3 H]CGS21680. Inhibition of [^3 H]NECA binding of to A2 -adenosine receptors in rat striatal membranes were measured as described, except that 5 mM theophylline was used to define non-specific binding. N^6 -Cyclopentyladenosine was present at 50 nM to inhibit binding of the ligand at A1 -adenosine receptors. IC50 values were converted to Ki -values as described.

The target of the next data set is rat brain A1-receptors. The following applies: prior work; cited from earlier work.
Data set [1] in a line: Solubility of analogs in pH 7.2 phosphate buffer. It is filed as physicochemical. The following applies: aqueous buffer; pH 7.2 phosphate buffer with DMSO, 2-3 h room temperature, absorbance at 310 nm, mean of 3. The protocol: The method for determining the solubilities of the xanthines is detailed in the Experimental Section below.
Solubility of Analogs. To 675 uL of pH 7.2 phosphate buffer was added 25 uL of a DMSO solution (approx. 10 mM) of the xanthine to be assayed. This was stirred for one minutes by a vortex mixer then left at room temperature for 2-3 hours. In each case (except where noted) a fine precipitate resulted which was collected by centrifugation at the end of the waiting period. After the dissolution period, a 100 uL aliquot of the supernatant was added to 1.0 mL of methanol and the absorbance measured at 310 nm using an extinction coefficient of 28,180 for calculating the concentration. Each xanthine was assayed 3 times and the concentration represent the averages of these 3 determinations.

The target in another data set is T2, A2-adenosine receptors (Rattus norvegicus, UniProt P30543).
T2 construct: adenosine receptors in rat striatal membranes were measured as described; from tissue; host or cells: rat striatal membranes
The data set is described as follows: Competitive binding assay at A2 receptors ([3H]CGS21680). To be noted: [3H]CGS21680, rat striatum; read-out: Ki at central rat receptors, A2. The protocol: The Ki values (in nM) for A1 and A2 binding in rat striatum are presented in Table 4 with the relative selectivities expressed as the ratio of Ki values. […] Table 4 also indicates the synthesis method used for each compound therein.
as §1, §2

Values after ≈ are worked out from the molar mass of the structure shown.

In US5310916A, “Trifunctional agents useful as irreversible inhibitors of A1-adenosine receptors” (The United States of America as represented by the …, priority 1990, dated 1994) one finds Ki, A2/A1 ratio and solubility data, which are given here for two compounds.

A word on the Ki: it is the equilibrium dissociation constant of an inhibitor or competing ligand from its target. As a reminder, the solubility is the dissolved amount per volume that the medium holds. A lower solubility goes with a poorly soluble substance.

T2 sequence (P30543 whole entry): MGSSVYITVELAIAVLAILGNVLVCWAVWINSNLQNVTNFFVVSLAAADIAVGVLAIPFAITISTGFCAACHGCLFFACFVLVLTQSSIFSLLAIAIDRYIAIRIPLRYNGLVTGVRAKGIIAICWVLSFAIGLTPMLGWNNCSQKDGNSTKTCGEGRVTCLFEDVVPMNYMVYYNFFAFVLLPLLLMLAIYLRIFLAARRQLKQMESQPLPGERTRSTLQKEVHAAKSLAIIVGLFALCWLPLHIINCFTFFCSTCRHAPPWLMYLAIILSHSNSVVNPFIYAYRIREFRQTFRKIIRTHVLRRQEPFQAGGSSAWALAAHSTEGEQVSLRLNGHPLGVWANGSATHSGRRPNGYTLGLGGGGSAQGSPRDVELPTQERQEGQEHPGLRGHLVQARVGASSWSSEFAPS

Consider `CCCn1c(=O)c2[nH]c(-c3ccc(OCC(=O)NCCNC(=S)Nc4cccc(N=C=S)c4)cc3)nc2n(CCC)c1=O` [Compound 7], for which the Ki on A1-adenosine receptors ([3H]RPIA, rat brain membranes, read-out: Ki at central rat receptors, A1) was 2.39 ± 0.35 nM; on rat brain A1-receptors, 2.4 nM; at A2-adenosine receptors it was 343 nM. Moreover, the A2/A1 ratio at A1-adenosine receptors (ratio of Ki values A2/A1) is on record as 144. The compound also came in with a solubility in data set [1] of 90.1 ± 0.56 µM (≈ 55.9 µg/mL).

In the case of `CCCn1c(=O)c2[nH]c(-c3ccc(OCC(=O)NCCNC(=S)Nc4ccc(N=C=S)cc4)cc3)nc2n(CCC)c1=O` [p-DITC-XAC (2b)], the Ki at rat brain A1-receptors is 6.6 nM.
